Experimental data reported in US20250263437A1, “POLYPEPTIDE FOR REPAIRING SKIN WOUND OR MUCOSAL INJURY, AND APPLICATION THEREOF” (Sichuan Gooddoctor Panxi Pharmaceutical Co., Ltd., priority 2021, published 2025).
Entries after “also recorded” stand apart in the source; their conditions may differ. Where no end group is shown, it is not given here.

Assays:
FGFR1 = FGFR1 (Homo sapiens, UniProt P11362); assay: FGFR receptor binding assay: ultrafiltration/mass spectrometry affinity screening to FGFR1 protein target; details: ratio of lower-layer to upper-layer compound MS signal intensity; the greater the ratio, the stronger the affinity
Sequence of FGFR1 (P11362 22-822, species assumed): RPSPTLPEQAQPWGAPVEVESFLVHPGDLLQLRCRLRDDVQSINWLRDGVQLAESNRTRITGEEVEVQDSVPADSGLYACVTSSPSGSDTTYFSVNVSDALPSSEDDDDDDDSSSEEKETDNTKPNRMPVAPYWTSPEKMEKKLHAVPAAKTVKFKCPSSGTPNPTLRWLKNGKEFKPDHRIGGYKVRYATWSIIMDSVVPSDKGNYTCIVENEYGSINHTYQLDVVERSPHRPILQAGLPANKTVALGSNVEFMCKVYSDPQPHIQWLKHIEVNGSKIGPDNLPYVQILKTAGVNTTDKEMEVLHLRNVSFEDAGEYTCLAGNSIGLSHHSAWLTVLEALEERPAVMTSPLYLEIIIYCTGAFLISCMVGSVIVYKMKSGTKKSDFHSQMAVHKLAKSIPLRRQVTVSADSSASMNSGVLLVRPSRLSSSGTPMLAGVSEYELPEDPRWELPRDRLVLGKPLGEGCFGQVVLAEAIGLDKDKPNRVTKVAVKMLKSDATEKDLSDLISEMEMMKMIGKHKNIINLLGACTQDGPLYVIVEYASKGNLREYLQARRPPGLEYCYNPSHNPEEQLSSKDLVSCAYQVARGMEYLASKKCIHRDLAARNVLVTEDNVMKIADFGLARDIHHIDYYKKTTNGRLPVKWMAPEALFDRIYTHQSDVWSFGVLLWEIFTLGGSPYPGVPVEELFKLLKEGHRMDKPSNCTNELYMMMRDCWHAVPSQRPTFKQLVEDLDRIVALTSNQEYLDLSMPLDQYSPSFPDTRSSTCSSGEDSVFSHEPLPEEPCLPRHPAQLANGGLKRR
Procedure: The affinity of the polypeptide compound prepared by the present invention to FGFR1 was tested by using a control FGFR1 allosteric inhibitor (product number SSR128129E from Sigma) as a positive compound control.
Screening for the affinity to FGFR1 was as follows: FGFR1 solutions with an appropriate concentration were taken, the positive compound SSR128129E (Sigma) at an appropriate concentration and sample solutions of the inventive polypeptide compounds, as freeze-dried powders, dissolved in protein buffers were then respectively added. After incubation at room temperature for 50 min, ultrafiltration and screening were carried out to obtain various treated solutions. An appropriate volume of acetonitrile was added to each treated solution to precipitate a protein, the solution was then centrifuged, and the supernatant was taken and analyzed by mass spectrometry.
Affinity screening conditions: One-dimensional liquid-phase conditions were: chromatographic column; PolyLC chromatographic column, mobile phase A: KH2PO4, NaCl, pH 7.5, mobile phase B: acetonitrile, column temperature: 8° C., flow rate: 1 mL/min, and injection volume: appropriate; and two-dimensional liquid-phase conditions were: chromatographic column: BONUS RRHD, mobile phase A: 0.1% formic acid aqueous solution, mobile phase B: 0.1% formic acid in acetonitrile, column temperature: 60° C., flow rate: 0.3 mL/min, and injection volume: 40 uL. Gradient elution was used, i.e., 98% A (0-1 min), 98-10% A (1-6 min), 10% A (6-7.5 min), 10-98% A (7.5-8 min), and 98% A (8-9.5 min). Mass spectrometry conditions: Agilent 6530 Q-Tof, ESI ion source, voltage 3.5 KV, mass-to-charge ratio scanning range m/z=200-3000, acquisition mode: positive ion scanning, ion source temperature: 350° C., solvent removal temperature: 300° C., and nitrogen flow rate: 8 L/min.

[1] = tested on: acute mechanical skin injury in rats; assay: Healing effect on acute mechanical skin injury in rats; type: in vivo; details: for promoting wound healing (in words): 40 μg/cm^2; for wound healing rate, 5 days / wound healing rate, 10 days / wound healing rate, 14 days: polypeptide 40 μg/cm^2, Jinyintai 40 IU/cm^2, topical once daily, in % (unit assumed)
Procedure: SPF grade SD rats, weighing 180-230 g, were raised in respective clean sterilized cages, with water, feed and padding replacement given regularly every day. The feeding temperature was kept at 22° C. and the humidity was 55-65%. They were raised for one week for acclimatization. According to a random grouping method, the animals were divided into a model control group (normal saline), a Jinyintai control group (40 IU/cm^2, Shenzhen Watsin Genetech Ltd.) and a test polypeptide treatment group (40 μg/cm^2), with 6 animals in each group. After the rats were successfully anesthetized by intraperitoneal injection of 3% pentobarbital sodium, the hair within 1 cm around the edge of the wound was cut off, and the wound area was disinfected first with iodophor and then with 75% alcohol locally. A round full-thickness skin wound of 1.5 cm×1.5 cm (i.e., 1.5 cm in diameter) was made near the neck at 4 cm down to the back from the middle of the connecting line of the ears, with the spine as the midline. It went deep into the muscle layer, forming an animal model of acute mechanical injury. After modeling, the rats were raised in individual cages with the wounds exposed. During dressing replacement, the rats were all first debrided with iodophor, and then, the wound was washed with sterile normal saline and wiped dry. Except the model group, the wounds of the rats in the other groups were locally coated with 40 μL of the corresponding drug solution once daily. On days 0, 5, 10 and 14 of administration, the wound images of the rats in each group were taken, and the wound area was calculated by means of an image analysis software (Image J). According to the formula, the wound healing rate was obtained.

HaCaT cells = assay: Proliferation of HaCaT cells (CCK8); type: cell-based, human; details: 0.2-0.8 μg/mL; 24 h, 48 h and 72 h; 1% serum
Procedure: Experimental method: Immortalized human keratinocytes (HaCaT cells) was adjusted to a concentration of 1.0×10^5 to 5.0×10^5/mL for passaging, and they were cultured at 37° C. and 5% CO2 for 24-36 h for biological activity detection. The cells were digested with 0.25% trypsin for 5 min, 1640 whole blood culture medium, the volume of which was not less than 1 time of the volume of the trypsin, was added to stop digestion, a cell suspension was collected, centrifuged at 1000 RPM for 3 min, the supernatant was discarded, 2 mL of 1640 whole blood culture medium was added to suspend the cells, 20 μL of the cell suspension was taken and stained with AOPI, the concentration of cells in the suspension was then detected by a cell counter, the suspension was prepared to a concentration of 5×10^4/mL with 1640 culture medium containing serum at a concentration of 10% and inoculated into a 96-well cell culture plate, with 100 μL per well, i.e., 5000 cells/well, and the plate was cultured at 37° C. and 5% CO2 overnight.
After 24 h, the original culture medium was discarded, and 100 μL of polypeptide compound solutions with different concentrations prepared with 1640 culture medium containing serum at a concentration of 1% were added, such that the final concentrations of the polypeptide compounds to be tested were 0.2, 0.4 and 0.8 ug/mL, respectively. In addition, an EGF control group was prepared by adding 100 μL of a recombinant human epidermal growth factor (EGF) solution prepared with 1640 culture medium containing serum at a concentration of 1%, with the final concentration being 100 ng/ml. In the model control group, an equal volume of 1640 culture medium containing serum at a concentration of 1% was added. After culturing at 37° C. and 5% CO2 for 24 h, 48 h and 72 h, the proliferation of the HaCaT cell line was detected by means of CCK8 kit.

RSC96 cells = assay: Proliferation of RSC96 cells (CCK-8); type: cell-based; details: 0.2, 0.4 and 0.8 ug/ml; 48 h; 0% serum
Procedure: Glial cells (RSC96 cells) were adjusted to a concentration of 1.0×10^5 to 5.0×10^5/mL for passaging and cultured at 37° C. and 5% CO2 for 24-36 h for biological activity detection. The cells were digested by trypsin, collected, prepared to a concentration of 5×10^4/mL with a serum-free medium, inoculated into a 96-well cell culture plate, with 100 μL per well, i.e., 5000 cells/well, and cultured overnight at 37° C. and 5% CO2. The polypeptide compound of the present invention was prepared to test concentrations (0.2 ug/ml, 0.4 ug/ml, and 0.8 ug/ml) with 0% serum culture medium as experimental groups, and an equal amount of 0% serum drug-free culture medium was added to the control group. They were added to 4 duplicate wells, and the resultants were incubated at 37° C. and 5% CO2 for 48 h. Detection of the proliferation of cells using CCK-8: the old culture medium was removed, and a serum-free medium containing 10% CCK-8 was added to each well. After incubation in an incubator for 2 h, the absorbance at 450 nm was measured by a microplate reader.

Cb/Ct range (FGFR1)	Sequence	promoting wound healing (in words) [1]	wound healing rate, 5 days [1]	wound healing rate, 10 days [1]	wound healing rate, 14 days [1]	effect on proliferation of HaCaT cells (HaCaT cells)	effect on proliferation of RSC96 cells (RSC96 cells)
1.0-3	AAVLDKLE [Compound 68]	trend of promoting wound healing	29.26 ± 6.46	60.97 ± 2.87	88.42 ± 4.79	proliferation-promoting effect	significant proliferation promoting effects
1.0-3	SMQASLEAEAKGKAE [Compound 1]	trend of promoting wound healing	31.68 ± 3.48	63.20 ± 3.87	91.43 ± 2.87	proliferation-promoting effect	significant proliferation promoting effects; also recorded: proliferation-promoting effect
1.0-3	VDAAVLEKLE [Compound 67]	trend of promoting wound healing	30.40 ± 3.35	61.42 ± 5.73	90.87 ± 3.94	proliferation-promoting effects	proliferation-promoting effect
